# Source: paper PMC10135569, “Does Enhanced Structural Maturity of hiPSC-Cardiomyocytes Better for the Detection of Drug-Induced Cardiotoxicity?” (Biomolecules, 2023)
# Legend:
# [1] = listed in Supplementary Table S1; no reference given; cited from earlier work
# [2] = system: hiPSC-CMs (iCell2 Cardiomyocytes) 2D monolayers; test: Contractility measurements using video imaging (ContractilityTool / MUSCLEMOTION); format: cell-based, human; conditions: for activity at 0.1 µM / activity at 0.3 µM / activity at 1 µM / activity at 3 µM: Homo sapiens, Cardiomyocyte, 0.5 h, 30 min, delta over DMSO 0.1%
# Procedure, shortened: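 Monolayers on fibronectin or Matrix Plus coating, tested on days 5–6 in serum-free medium. Four concentrations, one per well, n = 8, with vehicle control.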
# [3] = system: hiPSC-CMs (iCell2 Cardiomyocytes) 2D monolayers; test: Membrane potential (action potential) recordings with FluoVolt voltage-sensitive dye on the CellOPTIQ platform; format: cell-based, human; conditions: for activity at 0.1 µM / activity at 0.3 µM / activity at 3 µM / activity at 1 µM: Homo sapiens, Cardiomyocyte, 0.5 h, 30 min, delta over DMSO 0.1%
# Procedure, shortened: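 iCell2 hiPSC-CM monolayers (50,000 cells/well on fibronectin or Matrix Plus, days 5–6) were loaded with FluoVolt (1:1000, 20 min, 37 °C) and imaged at 37 °C with 470 nm excitation and 510–560 nm emission sampled at 10 kHz. Spontaneous action potentials were recorded for 10 s at baseline and 30 min after drug, with one of four concentrations per well (n = 8).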
# [4] = FM monolayer, read-out: CtAmp (%DD)
# [5] = FM monolayer, read-out: CtD50 (%DD)
# [6] = MM monolayer, read-out: CtAmp (%DD)
# [7] = MM monolayer, read-out: CtD50 (%DD)
# [8] = FM monolayer, read-out: Trise (%DD)
# [9] = MM monolayer, read-out: APD30 (%DD)
# [10] = MM monolayer, read-out: APD90 (%DD)
# [11] = MM monolayer, read-out: CL (%DD)
# [12] = MM monolayer, read-out: Trise (%DD)
# [13] = read-out: APD30 (%DD), FM monolayer
# [14] = read-out: APD90 (%DD), FM monolayer
# [15] = read-out: CL (%DD), FM monolayer
# [16] = read-out: Trise (%DD), FM monolayer
smiles,measurement,setting,value
C[C@H]1O[C@@H](O[C@H]2[C@@H](O)C[C@H](O[C@H]3[C@@H](O)C[C@H](O[C@H]4CC[C@@]5(C)[C@H](CC[C@@H]6[C@@H]5C[C@@H](O)[C@]5(C)[C@@H](C7=CC(=O)OC7)CC[C@]65O)C4)O[C@@H]3C)O[C@@H]2C)C[C@H](O)[C@@H]1O [Digoxin],Free Cmax,[1],2 nM
same,activity at 0.1 µM,[2]; [4],88 ± 6.1%
same,activity at 0.1 µM,[2]; [5],90 ± 1.3%
same,activity at 0.3 µM,[2]; [4],18 ± 11.1%
same,activity at 0.3 µM,[2]; [5],51 ± 15.9%
same,activity at 0.1 µM,[2]; [6],127 ± 26.2%
same,activity at 0.1 µM,[2]; [7],97 ± 2%
same,activity at 0.3 µM,[2]; [6],12 ± 3.3%
same,activity at 0.3 µM,[2]; [7],43 ± 1.8%
same,activity at 1 µM,[2]; [6],13 ± 5.3%
same,activity at 1 µM,[2]; [7],40 ± 3.6%
same,activity at 3 µM,[2]; [6],7 ± 1.9%
same,activity at 3 µM,[2]; [7],43 ± 3.4%
same,increasing the amplitude of contraction (positive inotropy),[2]; both experimental groups,ineffective
same,activity at 0.1 µM,[3]; [8],100 ± 21.3%
same,activity at 0.1 µM,[3]; [9],91 ± 1.2%
same,activity at 0.1 µM,[3]; [10],101 ± 1.3%
same,activity at 0.1 µM,[3]; [11],102 ± 0.4%
same,activity at 0.1 µM,[3]; [12],127 ± 10.8%
same,activity at 0.3 µM,[3]; [9],68 ± 2.5%
same,activity at 0.3 µM,[3]; [10],89 ± 1%
same,activity at 0.3 µM,[3]; [11],100 ± 0.8%
same,activity at 0.3 µM,[3]; [12],161 ± 38.2%
same,activity at 0.1 µM,[3]; [13],84 ± 1.8%
same,activity at 0.3 µM,[3]; [13],65 ± 2.8%
same,activity at 0.1 µM,[3]; [14],95 ± 0.6%
same,activity at 0.3 µM,[3]; [14],88 ± 2.1%
same,activity at 0.1 µM,[3]; [15],98 ± 0.7%
same,activity at 0.3 µM,[3]; [15],98 ± 0.9%
same,activity at 0.3 µM,[3]; [16],74 ± 9.2%
same,effect on APD (in words),[3]; both groups,decreased
same,electrical activity of the monolayers at higher concentrations,"[3]; higher concentrations, FM and MM",electrical quiescence
O=C1CCCN1CC#CCN1CCCC1 [Oxotremorine],activity at 0.1 µM,[2]; [4],140 ± 19.7%
same,activity at 0.1 µM,[2]; [5],108 ± 1.9%
same,activity at 0.3 µM,[2]; [4],105 ± 16.5%
same,activity at 0.3 µM,[2]; [5],112 ± 2.5%
same,activity at 1 µM,[2]; [4],117 ± 14.5%
same,activity at 1 µM,[2]; [5],116 ± 2.8%
same,activity at 3 µM,[2]; [4],166 ± 17.6%
same,activity at 3 µM,[2]; [5],110 ± 1.6%
same,activity at 0.1 µM,[2]; [6],106 ± 11.7%
same,activity at 0.1 µM,[2]; [7],116 ± 2.1%
same,activity at 0.3 µM,[2]; [6],97 ± 12.9%
same,activity at 0.3 µM,[2]; [7],117 ± 1.1%
same,activity at 1 µM,[2]; [6],105 ± 10.2%
same,activity at 1 µM,[2]; [7],118 ± 1.6%
same,activity at 3 µM,[2]; [6],103 ± 7.4%
same,activity at 3 µM,[2]; [7],120 ± 2.3%
same,activity at 3 µM,[3]; [8],132 ± 11.2%
same,activity at 0.1 µM,[3]; [9],104 ± 1.7%
same,activity at 0.1 µM,[3]; [10],104 ± 1%
same,activity at 0.1 µM,[3]; [11],111 ± 2.8%
same,activity at 0.1 µM,[3]; [12],124 ± 18.7%
same,activity at 0.3 µM,[3]; [9],110 ± 3.4%
same,activity at 0.3 µM,[3]; [10],108 ± 1.1%
same,activity at 0.3 µM,[3]; [11],115 ± 3.3%
same,activity at 0.3 µM,[3]; [12],144 ± 26.3%
same,activity at 1 µM,[3]; [9],110 ± 2.8%
same,activity at 1 µM,[3]; [10],114 ± 1.1%
same,activity at 1 µM,[3]; [11],120 ± 1.4%
same,activity at 1 µM,[3]; [12],117 ± 17%
same,activity at 3 µM,[3]; [9],115 ± 3.8%
same,activity at 3 µM,[3]; [10],113 ± 1.2%
same,activity at 3 µM,[3]; [11],123 ± 1.1%
same,activity at 3 µM,[3]; [12],158 ± 32%
same,activity at 0.1 µM,[3]; [13],106 ± 2.3%
same,activity at 0.3 µM,[3]; [13],111 ± 3.3%
same,activity at 1 µM,[3]; [13],110 ± 4.4%
same,activity at 3 µM,[3]; [13],107 ± 3.4%
same,activity at 0.1 µM,[3]; [14],103 ± 1.3%
same,activity at 0.3 µM,[3]; [14],105 ± 2.8%
same,activity at 1 µM,[3]; [14],111 ± 1.7%
same,activity at 3 µM,[3]; [14],101 ± 2.8%
same,activity at 0.1 µM,[3]; [15],117 ± 1.3%
same,activity at 0.3 µM,[3]; [15],122 ± 1.8%
same,activity at 1 µM,[3]; [15],121 ± 2.9%
same,activity at 3 µM,[3]; [15],111 ± 3.6%
same,activity at 0.1 µM,[3]; [16],155 ± 41.3%
same,activity at 0.3 µM,[3]; [16],145 ± 24.3%
same,activity at 1 µM,[3]; [16],117 ± 13.3%
same,effect on beating rate / spontaneous rate (in words),"[3]; both FM and MM, concentration not given",decrease
same,changes in the APD,[3]; both groups (FM and MM),< 10%
